Patent publication US20170202932A1, “METHODS FOR INHIBITING NEURON APOPTOSIS AND NECROSIS” (NEWSOUTH INNOVATIONS PTY LIMITED, priority 2012, published 2017)

What was measured:
src tyrosine kinase = src tyrosine kinase (Homo sapiens, UniProt P12931); conditions: cited from earlier work
[1] = target: T1, recombinant mouse TRPC3b channels (Mus musculus, UniProt Q9QZC1, R524G); assay: Fluo-4 Ca2+ imaging of DHPG-activated Ca2+ entry, HEK293 cells co-expressing TRPC3b and mGluR1; type: cell-based; conditions: genistein 200 μM pre-application, n=6, without genistein 1.56±0.0713
T1 construct: Full length mouse TRPC3 transcripts were obtained by PCR; expressed in transfected cells; host or cells: HEK293 cells stably expressing TRPC3b, additionally transfected with mGluR1-eYFP cDNA
T1 sequence (Q9QZC1 75-910 R524G): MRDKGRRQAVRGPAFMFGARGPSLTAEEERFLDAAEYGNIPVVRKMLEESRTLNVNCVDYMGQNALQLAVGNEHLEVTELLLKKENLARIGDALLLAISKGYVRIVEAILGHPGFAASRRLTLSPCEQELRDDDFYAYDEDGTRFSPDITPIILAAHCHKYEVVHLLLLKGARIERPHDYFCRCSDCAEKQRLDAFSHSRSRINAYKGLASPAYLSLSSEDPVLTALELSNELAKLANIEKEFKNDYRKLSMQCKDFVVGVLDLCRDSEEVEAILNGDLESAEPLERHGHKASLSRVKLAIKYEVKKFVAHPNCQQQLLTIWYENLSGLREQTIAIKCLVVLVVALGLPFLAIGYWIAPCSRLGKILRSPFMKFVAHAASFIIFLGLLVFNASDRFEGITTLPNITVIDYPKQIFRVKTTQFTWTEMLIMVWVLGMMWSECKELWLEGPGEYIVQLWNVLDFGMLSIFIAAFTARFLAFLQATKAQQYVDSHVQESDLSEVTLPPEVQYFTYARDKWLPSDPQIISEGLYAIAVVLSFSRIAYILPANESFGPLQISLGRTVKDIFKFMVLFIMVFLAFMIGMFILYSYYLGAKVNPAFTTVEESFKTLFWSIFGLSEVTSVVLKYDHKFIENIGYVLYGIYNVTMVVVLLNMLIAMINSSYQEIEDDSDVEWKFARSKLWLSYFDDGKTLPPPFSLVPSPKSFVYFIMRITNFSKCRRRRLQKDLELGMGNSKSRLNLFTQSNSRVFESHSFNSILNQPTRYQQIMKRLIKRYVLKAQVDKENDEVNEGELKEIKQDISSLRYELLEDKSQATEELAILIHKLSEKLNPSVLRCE
Method: The TRPC3-mediated Ca^2+ entry through two distinct activation pathways was assessed by microfluorometric Ca^2+ imaging: i) Ca^2+ entry via the M3 receptor-PLCB-DAG pathway endogenous to HEK293 cells, using Indo-1 as a Ca^2+ indicator; and ii) Ca^2+ entry via mGluR1-PLCB-DAG through co-expression of the mGluR1, using Fluo-4 as a Ca^2+ indicator.
Cells were grown in DMEM media on 18 mm circular coverslips coated with poly-D-lysine (25 μg/ml) and collagen (25 μg/ml) at 1:1 ratio. The cells were washed with HPSS. The coverslips were then incubated with HPSS and 0.1% pluronic acid, along with either 1 μM Indo-1AM or Fluo-4AM Ca^2+ indicator (Invitrogen, U.S.A.) for an hour prior to the experiment. […]
For Fluo-4 experiments, the cells were mounted on an inverted microscope (DMIL, Leica) with a 20× 0.4NA objective (Leica HCX PL Fluotar), and illuminated with a mercury lamp using a GFP filter (part no. 11504164; excitation 470/40 nm, dichroic 500 nm, emission 525/50 nm) every 5 seconds (Andor iXon+ 885 EMCCD Camera, Ireland) with a gated shutter (Ludl Electronic Products, U.S.A.), controlled via Andor IQ (v1.8.1) software. The images were then analysed using Image J software (NIH, U.S.A.) with individual regions of interest (ROIs) identified for HEK293 cells responding to M3 or mGluR1 agonists with increased Ca^2+ signal. […]

[2] = target: T2, recombinant mouse TRPC3b channels (Mus musculus, UniProt Q9QZC1, R524G); assay: Whole-cell patch clamp of CCh-activated current, HEK293 cells expressing TRPC3b; type: cell-based; conditions: TRPC3b+CCh (100 μM)+genistein 200 μM pre-incubation; Vh=−50 mV; n=6; CCh alone −235.0±28.7 pA
T2 construct: Full length mouse TRPC3 transcripts were obtained by PCR; expressed in transfected cells; host or cells: HEK293 cells, stably transfected (pIRES-DsRed2 vector)
T2 sequence (Q9QZC1 75-910 R524G limits assumed): T1 sequence (Q9QZC1 75-910 R524G)
Method: For whole cell patch clamp recordings, HEK293 cells stably expressing recombinant TRPC3 ion channels were grown to 85-95% confluence on a coverslip coated with poly-D-lysine and collagen (both from Sigma-Aldrich, U.S.A.). Recording pipettes were made from borosilicate glass (GC120TF-10, Harvard Apparatus, U.K.). The pipette resistance was at 3-6 MΩ (PC-10, Narishige, Japan). The internal solution had the composition: 130 mM CsCl, 2 mM MgCl2, 10 mM EGTA, 0.3 mM ATP, 0.03 mM GTP, pH at 7.3 adjusted with CsOH. Cells on the coverslip were placed in a microchamber on an inverted microscope (Leica DMIL, Germany) and superfused with HEPES-buffered physiological salt solution (HPSS) containing 120 mM NaCl, 5.4 mM KCl, 2 mM CaCl2, 1.13 mM MgCl2, 10 mM glucose, 20 mM HEPES (pH 7.4) at room temperature.
Whole cell patch clamp recordings were made following a gigaseal, using an Axopatch 200 patch clamp amplifier (Molecular Devices, U.S.A.) controlled by software (pClamp 10.2, Molecular Devices, U.S.A.). Cell capacitance was cancelled and series resistance was compensated by ˜90%. […] Carbachol (used to activate TRPC3 channels via the endogenously expressed M3 AChR) was purchased from Sigma-Aldrich (U.S.A.). DHPG (—(S)-2-amino-2-(3,5-dihydroxyphenyl)acetic acid), a group I mGluR agonist (Schoepp et al. 1994), was purchased from Tocris Bioscience (U.K.). […]

src tyrosine kinase, sequence (P12931 whole entry): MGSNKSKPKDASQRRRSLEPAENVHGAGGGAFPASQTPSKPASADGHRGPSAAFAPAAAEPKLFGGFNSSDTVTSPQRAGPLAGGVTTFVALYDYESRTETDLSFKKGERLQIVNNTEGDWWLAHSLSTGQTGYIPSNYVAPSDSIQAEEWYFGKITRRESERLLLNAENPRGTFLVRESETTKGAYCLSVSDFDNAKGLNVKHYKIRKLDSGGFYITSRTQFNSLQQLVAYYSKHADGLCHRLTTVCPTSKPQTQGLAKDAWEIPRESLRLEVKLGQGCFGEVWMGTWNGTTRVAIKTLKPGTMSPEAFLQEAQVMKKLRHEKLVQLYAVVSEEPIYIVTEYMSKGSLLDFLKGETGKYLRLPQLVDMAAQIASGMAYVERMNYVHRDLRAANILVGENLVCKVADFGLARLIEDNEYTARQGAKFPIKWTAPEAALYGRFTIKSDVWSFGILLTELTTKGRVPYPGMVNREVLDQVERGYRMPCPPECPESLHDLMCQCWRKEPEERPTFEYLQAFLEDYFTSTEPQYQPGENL

In the case of `O=c1c(-c2ccc(O)cc2)coc2cc(O)cc(O)c12` [genistein, 4′, 5,7-trihydroxyisoflavone], the “src tyrosine kinase-mediated phosphorylation of TRPC3” value (src tyrosine kinase) is given as “inhibit”, the “Fluo-4 fluorescence F/F0 (TRPC3-mediated Ca2+ entry after DHPG)” value [1] is given as 1.031±0.0144 and the “mean peak CCh-activated whole-cell inward current” value [2] is given as −24.8±9.7 pA.
